US20150094260A1, “BUFFERED OPHTHALMIC COMPOSITIONS AND METHODS OF USE THEREOF” (ARAVA BIO-TECH LTD., priority 2010, published 2015)
Entries after “also recorded” stand apart in the source; their conditions may differ. Ends that are not written are not given here. * marks the point of attachment. Myristoyl = CCCCCCCCCCCCCC(=O)*

How the values were obtained:
corneal wound in mice = assay: Alkali burning of mouse corneas with Silver Nitrate applicators; assay type: in vivo; settings: 1 μg/ml; for wound healing compared to control (Formula 1): 3 times daily for 3 or 7 days; for inflammatory cells (lymphocytes) infiltration into the wound area / neutrophils recruitment to the corneal wound gap / pathological angiogenesis in corneal wound area / corneal re-epithelialization (wounds with full epidermal closure at 7 days post wounding) / pathological corneal swelling: three daily instillations, Formula 1 as control; for inflammatory cells (lymphocytes) infiltration into the wound area / neutrophils recruitment to the corneal wound gap / pathological angiogenesis in corneal wound area / pathological corneal swelling: 3 days; for inflammatory cells (lymphocytes) infiltration into the wound area: FIG. 31; for neutrophils recruitment to the corneal wound gap: FIG. 32; for pathological angiogenesis in corneal wound area: FIG. 33; for corneal re-epithelialization (wounds with full epidermal closure at 7 days post wounding): FIG. 30; for pathological corneal swelling: FIG. 34
Procedure: Mice were subjected to chemical alkali burn wounding (using Silver Nitrate applicators for 10 seconds). Eyes were treated by three daily ocular instillations of treatments during 7 successive days with DAP-1 1 μg/ml, DIP-1 1 μg/ml and EPIP-2 1 μg/ml or with Formula 1 as control. Percentage of wounds achieved full epidermal closure at 7 days post wounding.
FIG. 31 is a histogram showing that DAP-1 1 μg/ml and DIP-1 1 μg/ml reduce lymphocytes infiltration in corneal wound gap in mice. Mice were subjected to chemical alkali burn wounding (using Silver Nitrate applicators for 10 seconds). Eyes were treated by three daily ocular instillations of treatments during 3 successive days with DAP-1 1 μg/ml, DIP-1 1 μg/ml and EPIP-2 1 μg/ml or with Formula 1 as control. Histological H&E staining of the corneas wounded area was performed and lymphocytes infiltration was arbitrarily assessed.
FIG. 32 is a histogram showing that DAP-1 1 μg/ml and EPIP-2 1 μg/ml decrease neutrophils recruitment to the corneal wound gap in mice. Mice were subjected to chemical alkali burn wounding (using Silver Nitrate applicators for 10 seconds). Eyes were treated by three daily ocular instillations of treatments during 3 successive days with DAP-1 1 μg/ml, DIP-1 1 μg/ml and EPIP-2 1 μg/ml or with Formula 1 as control. Histological sections of […] were stained with specific neutrophil staining kit (according to manufacturer). Neutrophils were counted per fixed field ×200 and represented by arbitrary units.
Mice were subjected to chemical alkali burn wounding (using Silver Nitrate applicators for 10 seconds). Eyes were treated by three daily ocular instillations of treatments during 3 successive days with DAP-1 1 μg/ml, DIP-1 1 μg/ml and EPIP-2 1 μg/ml or with Formula 1 as control. Histological H&E staining of the corneas wounded area has been performed. Blood vessels in entire corneal area were assessed and the results are represented graphically in objective arbitrary units.
FIG. 34 is a histogram showing that DIP-1 1 μg/ml and EPIP-2 1 μg/ml decrease pathological swelling of wounded cornea in mice. Mice were subjected to chemical alkali burn wounding (using Silver Nitrate applicators for 10 seconds). Eyes were treated by three daily ocular instillations of treatments during 3 successive days with DAP-1 1 μg/ml, DIP-1 1 μg/ml and EPIP-2 1 μg/ml or with Formula 1 as control. Histological H&E staining of the corneas wounded area has been performed and corneal swelling was objectively assessed. The results are presented in arbitrary units. […]
In another experiment, Alkali burning of corneas was performed on anaesthetized mice using Silver Nitrate applicators (75% Silver nitrate, 25% Potassium nitrate, Grafco, GFCO Inc.) for 10 seconds. The eyes were irrigated immediately with 5 ml sterile saline. Eyes were treated 3 times daily for 3 or 7 days with DAP-1 1 μg/ml, DIP-1 1 μg/ml and EPIP-2 1 μg/ml or Formula 1 as control.

[1] = test system: rabbit eyes subject to mechanical corneal wounding; assay: Mechanical corneal wounding in rabbit eyes, corneal erosion area by fluorescein staining; assay type: in vivo
Procedure: Mechanical Corneal Ulcer Formation: A 6 mm corneal trephine (Grieshaber, Switzerland), preset for 50 micrometer in depth and a miniblade were used under a surgical microscope, to perform a uniform central corneal epithelial erosions, 6 mm in diameter and 50 micrometer in depth.
Rabbits were subjected to mechanical corneal wounding following the protocol discussed above. Eyes were treated by two daily ocular instillations of treatments during 3 successive days. Fluorescein staining was used to measure the corneal erosion area at twelve hours intervals starting 24 hrs post wounding and up to 72 hrs.
In addition to the time to heal parameter which is routinely assessed in wound healing studies, several publications established the importance of a new parameter, 50% reduction in wound size to serve as a robust predictor of complete wound closure. […] Results were therefore analyzed as percentage of eyes with 50% closure or higher at 24 hr post wounding (FIG. 2).
Rabbits were subjected to mechanical corneal wounding as discussed in Example 1. Eyes were treated by two daily ocular instillations of treatments during 3 successive days. Fluorescein staining was used to measure the corneal erosion area at six hours intervals.
Additional experiments were conducted using varying dosages of active agent. Rabbits were subjected to mechanical corneal wounding as described above. Eyes were treated by two daily ocular instillations of treatments during 3 successive days with 0.1 or 0.5 μg/eye/treatment of MPDY-1 alone in HOB-10 (referred to as HO/05/09) or in BSS or in combination with insulin 0.1-0.5 μg/eye/treatment. Rabbits received a total of daily dose from 0.1 μg (1 μg/ml) and up to 2 μg (20 μg/ml). Fluorescein staining was used to measure the corneal erosion area at twelve hours intervals starting 24 hrs post wounding and up to 72 hr.
Rabbits were subjected to mechanical corneal wounding as described above. […]

[2] = test system: ICAM-1 expression on endothelial cells and keratinocytes; macrophages, neutrophiles and T-cells at inflammation site; assay: Anti-inflammatory effect of MPDY-1 in various in-vitro, ex-vivo and in-vivo models
Description: This example discusses experiments showing the anti-inflammatory effect of MPDY-1.

Substance | wound healing compared to control (Formula 1) (corneal wound in mice) | inflammatory cells (lymphocytes) infiltration into the wound area (corneal wound in mice) | neutrophils recruitment to the corneal wound gap (corneal wound in mice) | pathological angiogenesis in corneal wound area (corneal wound in mice) | corneal re-epithelialization (wounds with full epidermal closure at 7 days post wounding) (corneal wound in mice) | pathological corneal swelling (corneal wound in mice) | eyes completely healed without ocular scarring (full closure) at 48 hr post wounding ([1]; 48 hr, MPDY-1 0.1 or 0.5 μg/eye/treatment, two daily instillations, FIG. 11) | time within which all treated eyes reached full closure ([1]; post wounding, FIG. 11) | closure of ocular injury at 24 h post wounding ([1]; versus Control (standard of care ocular buffer), two daily instillations, FIG. 9) | ICAM-1 expression on endothelial cells and keratinocytes [2] | activation of macrophages at inflammation site [2] | macrophages, neutrophiles and T-cells infiltration into inflammation site [2]
H-Met-Arg-Ala-Ala-Glu-Ala-Ala-Ala-Ala-Glu-Pro-Met-OH (H-MRAAEAAAAEPM-OH) [DAP-1] | wound healing enhancement | excelled in reducing inflammatory cells infiltration into the wound area | more potent in decreasing specific neutrophils recruitment | reduce angiogenesis in corneal wound gap | promote re-epithelialization of corneal wound |  |  |  |  |  |  | 
H-Pro-Tyr-Ile-Ala-Leu-Asn-Val-Asp-OH (H-PYIALNVD-OH) [EPIP-2] | wound healing enhancement |  | more potent in decreasing specific neutrophils recruitment | reduce angiogenesis in corneal wound gap | promote re-epithelialization of corneal wound | normalization in pathological corneal swelling |  |  |  |  |  | 
MPDY-1: N-myristoylated peptide defined by SEQ ID NO: 2 (Phe-Ala-Arg-Lys-Gly-Ala-Leu-Arg-Gln), PKC-α inhibitor; tested in BSS (Myristoyl-FARKGALRQ) |  |  |  |  |  |  | 30% | ≤ 72 h | 60% | attenuate ICAM-1 expression on endothelial cells and keratinocytes | attenuate activation of macrophages at inflammation site | inhibit macrophages, neutrophiles and T-cells infiltration into inflammation site
Myristoyl-Ser-Phe-Asn-Ser-Tyr-Glu-Leu-Gly-Ser-Leu-OH (Myristoyl-SFNSYELGSL-OH; SMILES CCCCCCCCCCCCCC(=O)N[C@@H](CO)C(=O)N[C@@H](Cc1ccccc1)C(=O)N[C@@H](CC(N)=O)C(=O)N[C@@H](CO)C(=O)N[C@@H](Cc1ccc(O)cc1)C(=O)N[C@@H](CCC(=O)O)C(=O)N[C@@H](CC(C)C)C(=O)NCC(=O)N[C@@H](CO)C(=O)N[C@@H](CC(C)C)C(=O)O) [DIP-1] | wound healing enhancement | excelled in reducing inflammatory cells infiltration into the wound area |  | reduce angiogenesis in corneal wound gap | more potent; also recorded: promote re-epithelialization of corneal wound | normalization in pathological corneal swelling |  |  |  |  |  | 
